Assay: Solubility in organic solvents
Format: physicochemical

CC(C)(Br)C(=O)NCC1CC2C=CC1C2 (stereo not drawn) [NBTMBr]
Solubility: completely soluble in (solvents) (at 60° C.): completely in N,N-dimethylacetamide (DMAc) | Solubility: partially soluble in (solvents) (at 60° C.): partially in toluene, benzene, hexane and N-methyl-2-pyrrolidinone (NMP) | Solubility: soluble in (solvents) (at room temperature): soluble in acetone, pyridine, ethanol, methanol, methylene chloride, tetrahydrofuran, N,N-dimethylformamide (DMF) and dimethylsulfoxide (DMSO)

Source: patent US20050182220A1, “Novel functional norbornenes as initiators for radical polymerization, their polymeric derivatives and a process for producing the same” (priority 2004, published 2005)
